This passage reports IC50 and EC50 results from ChEMBL document CHEMBL1629443 (J Med Chem, 2010).

By IC50 is commonly meant the concentration that gives 50% inhibition. Broadly, the EC50 is the concentration that produces a half-maximal response.

Test [1] has as its target Histone deacetylase. As to the kind of experiment: Inhibition of HDAC in human HeLa cell nuclear extracts. Format: cell-based.
Test [2] can be described thus: Inhibition of HDAC assessed as histone H3K'9+14 acetylation levels by cell based histone H3 hyperacetylation assay.
For test [3], the target named is Histone deacetylase 1 (Homo sapiens, UniProt Q13547). As to the kind of experiment: Inhibition of human recombinant HDAC1 expressed in HEK293 cells. Format: cell-based.
The target of test [4] is T1, Protein deacetylase HDAC6 (Homo sapiens, UniProt Q9UBN7).
T1 sequence (Q9UBN7 whole entry): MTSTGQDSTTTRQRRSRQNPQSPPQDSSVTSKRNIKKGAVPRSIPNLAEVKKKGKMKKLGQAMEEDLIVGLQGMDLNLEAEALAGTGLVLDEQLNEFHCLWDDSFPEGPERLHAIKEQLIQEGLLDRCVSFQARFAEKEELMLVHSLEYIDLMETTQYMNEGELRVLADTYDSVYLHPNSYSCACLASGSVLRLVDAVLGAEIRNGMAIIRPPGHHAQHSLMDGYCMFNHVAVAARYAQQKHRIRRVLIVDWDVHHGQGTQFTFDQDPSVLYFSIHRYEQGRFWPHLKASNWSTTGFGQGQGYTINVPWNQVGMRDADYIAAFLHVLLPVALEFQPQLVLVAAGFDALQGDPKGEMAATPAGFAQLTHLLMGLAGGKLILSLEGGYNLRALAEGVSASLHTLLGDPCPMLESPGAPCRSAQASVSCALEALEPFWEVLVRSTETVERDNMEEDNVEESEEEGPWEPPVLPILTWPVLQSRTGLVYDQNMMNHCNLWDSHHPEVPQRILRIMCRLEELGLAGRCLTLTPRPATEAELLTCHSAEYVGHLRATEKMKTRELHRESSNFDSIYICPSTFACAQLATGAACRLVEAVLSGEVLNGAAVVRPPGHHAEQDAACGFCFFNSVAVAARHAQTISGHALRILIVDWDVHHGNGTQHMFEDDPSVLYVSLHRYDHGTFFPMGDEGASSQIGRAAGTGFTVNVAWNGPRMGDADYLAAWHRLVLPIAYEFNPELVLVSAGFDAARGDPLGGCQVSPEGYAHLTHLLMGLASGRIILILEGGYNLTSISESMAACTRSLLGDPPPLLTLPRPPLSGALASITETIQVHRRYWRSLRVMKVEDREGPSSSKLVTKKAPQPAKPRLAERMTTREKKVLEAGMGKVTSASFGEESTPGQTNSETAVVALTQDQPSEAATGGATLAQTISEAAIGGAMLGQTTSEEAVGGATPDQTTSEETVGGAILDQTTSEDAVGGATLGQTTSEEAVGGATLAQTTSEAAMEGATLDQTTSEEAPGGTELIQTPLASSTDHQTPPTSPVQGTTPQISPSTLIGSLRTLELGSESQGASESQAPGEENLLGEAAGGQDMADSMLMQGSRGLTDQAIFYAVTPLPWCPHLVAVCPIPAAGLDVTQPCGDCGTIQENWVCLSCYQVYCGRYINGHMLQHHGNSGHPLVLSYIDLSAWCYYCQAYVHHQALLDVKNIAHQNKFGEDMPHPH
As to the kind of experiment: Inhibition of human recombinant HDAC6 expressed in HEK293 cells. It counts as cell-based.

The target in test [5] is Histone deacetylase 3 (Homo sapiens, UniProt O15379). As to the kind of experiment: Inhibition of Flag tagged human recombinant HDAC3 expressed in Sf21 cells coexpressing SMRT DAD domain.
Test [6] has as its target T2, Histone deacetylase 8 (Homo sapiens, UniProt Q9BY41).
T2 sequence (Q9BY41 whole entry): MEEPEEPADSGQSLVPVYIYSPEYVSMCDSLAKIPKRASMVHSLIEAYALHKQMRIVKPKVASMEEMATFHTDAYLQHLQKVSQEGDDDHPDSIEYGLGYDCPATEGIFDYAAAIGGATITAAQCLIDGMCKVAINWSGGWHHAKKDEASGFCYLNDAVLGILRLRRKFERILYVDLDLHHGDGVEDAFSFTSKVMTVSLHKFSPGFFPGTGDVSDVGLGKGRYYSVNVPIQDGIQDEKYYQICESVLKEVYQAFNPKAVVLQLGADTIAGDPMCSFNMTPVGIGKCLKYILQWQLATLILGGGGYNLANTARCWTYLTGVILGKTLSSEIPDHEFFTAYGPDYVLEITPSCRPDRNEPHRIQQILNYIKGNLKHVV
As to the kind of experiment: Inhibition of Flag tagged human recombinant HDAC8 expressed in Sf21 cells.

For test [7], the target named is Epidermal growth factor receptor (Homo sapiens, UniProt P00533). Kind of test: Inhibition of EGFR by flash plate based radioactive enzyme assay.
Test [8] deals with Receptor tyrosine-protein kinase erbB-2 (Homo sapiens, UniProt P04626). As to the kind of experiment: Inhibition of HER2 by flash plate based radioactive enzyme assay.
Test [9] deals with Platelet-derived growth factor receptor beta (Homo sapiens, UniProt P09619). As to the kind of experiment: Inhibition of PDGFRbeta by flash plate based radioactive enzyme assay.
Test [10] concerns the target Insulin receptor (Homo sapiens, UniProt P06213). Kind of test: Inhibition of INSR by flash plate based radioactive enzyme assay.
In test [11] the target is Tyrosine-protein kinase ABL1 (Homo sapiens, UniProt P00519). As to the kind of experiment: Inhibition of ABL1 by flash plate based radioactive enzyme assay.
In test [12] the target is Cyclin-dependent kinase 2 (Homo sapiens, UniProt P24941). As to the kind of experiment: Inhibition of CDK2 by flash plate based radioactive enzyme assay.
Test [13] can be described thus: Inhibition of PKA by flash plate based radioactive enzyme assay.
Test [14] has as its target Serine/threonine-protein kinase PLK1 (Homo sapiens, UniProt P53350). As to the kind of experiment: Inhibition of PLK1 by flash plate based radioactive enzyme assay.
In test [15] the test system is A549. Kind of test: Cytotoxicity against human A549 cells overexpressing HDAC by resazurin dye reduction assay.
In test [16] the test system is HeLa. As to the kind of experiment: Cytotoxicity against human HeLa cells overexpressing HDAC by resazurin dye reduction assay. On the technique in general: Resazurin is reduced to fluorescent resorufin, in cell work by metabolically active cells.
For test [17], the system named is A-431. As to the kind of experiment: Cytotoxicity against human A431 cells overexpressing EGFR by resazurin dye reduction assay.
The subject of test [18] is CAL-27. Kind of test: Cytotoxicity against human CAL27 cells overexpressing EGFR by resazurin dye reduction assay.
For test [19], the system named is SK-BR-3. Kind of test: Cytotoxicity against human SKBR3 cells overexpressing HER2 by resazurin dye reduction assay.
Test [20] deals with SK-OV-3. As to the kind of experiment: Cytotoxicity against human SKOV3 cells overexpressing HER2 by resazurin dye reduction assay. Format: functional, cell-based.

Chain of Platelet-derived growth factor receptor beta (P09619 whole entry): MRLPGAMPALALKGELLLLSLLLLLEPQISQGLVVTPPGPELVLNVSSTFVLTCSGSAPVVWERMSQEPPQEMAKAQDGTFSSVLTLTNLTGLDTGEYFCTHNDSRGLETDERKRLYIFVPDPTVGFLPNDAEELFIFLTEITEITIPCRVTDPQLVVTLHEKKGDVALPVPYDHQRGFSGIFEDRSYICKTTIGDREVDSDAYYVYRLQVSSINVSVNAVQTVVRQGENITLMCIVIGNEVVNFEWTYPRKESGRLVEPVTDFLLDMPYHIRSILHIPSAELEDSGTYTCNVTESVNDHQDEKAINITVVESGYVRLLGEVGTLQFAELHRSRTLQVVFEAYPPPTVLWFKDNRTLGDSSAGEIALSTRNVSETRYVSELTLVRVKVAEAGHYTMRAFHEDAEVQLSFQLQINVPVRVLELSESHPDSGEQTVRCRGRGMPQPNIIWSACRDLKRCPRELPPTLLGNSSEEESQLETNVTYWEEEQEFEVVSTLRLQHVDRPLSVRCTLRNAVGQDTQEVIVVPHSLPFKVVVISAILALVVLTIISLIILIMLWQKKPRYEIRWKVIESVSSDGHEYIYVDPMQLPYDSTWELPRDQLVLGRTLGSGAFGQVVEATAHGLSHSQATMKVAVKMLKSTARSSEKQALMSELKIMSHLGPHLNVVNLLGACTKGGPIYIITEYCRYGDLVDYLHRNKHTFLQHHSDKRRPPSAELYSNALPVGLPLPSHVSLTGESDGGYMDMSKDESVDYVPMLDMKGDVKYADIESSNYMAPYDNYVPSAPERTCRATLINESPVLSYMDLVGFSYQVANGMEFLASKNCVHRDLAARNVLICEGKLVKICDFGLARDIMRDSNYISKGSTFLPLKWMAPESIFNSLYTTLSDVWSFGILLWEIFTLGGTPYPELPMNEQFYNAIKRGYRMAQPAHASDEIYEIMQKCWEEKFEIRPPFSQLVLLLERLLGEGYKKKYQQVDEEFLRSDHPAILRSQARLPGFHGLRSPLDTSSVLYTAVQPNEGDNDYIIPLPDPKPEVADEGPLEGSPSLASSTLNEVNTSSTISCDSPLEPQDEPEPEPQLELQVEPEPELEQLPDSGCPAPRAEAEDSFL
Chain of Insulin receptor (P06213 28-758 limits assumed): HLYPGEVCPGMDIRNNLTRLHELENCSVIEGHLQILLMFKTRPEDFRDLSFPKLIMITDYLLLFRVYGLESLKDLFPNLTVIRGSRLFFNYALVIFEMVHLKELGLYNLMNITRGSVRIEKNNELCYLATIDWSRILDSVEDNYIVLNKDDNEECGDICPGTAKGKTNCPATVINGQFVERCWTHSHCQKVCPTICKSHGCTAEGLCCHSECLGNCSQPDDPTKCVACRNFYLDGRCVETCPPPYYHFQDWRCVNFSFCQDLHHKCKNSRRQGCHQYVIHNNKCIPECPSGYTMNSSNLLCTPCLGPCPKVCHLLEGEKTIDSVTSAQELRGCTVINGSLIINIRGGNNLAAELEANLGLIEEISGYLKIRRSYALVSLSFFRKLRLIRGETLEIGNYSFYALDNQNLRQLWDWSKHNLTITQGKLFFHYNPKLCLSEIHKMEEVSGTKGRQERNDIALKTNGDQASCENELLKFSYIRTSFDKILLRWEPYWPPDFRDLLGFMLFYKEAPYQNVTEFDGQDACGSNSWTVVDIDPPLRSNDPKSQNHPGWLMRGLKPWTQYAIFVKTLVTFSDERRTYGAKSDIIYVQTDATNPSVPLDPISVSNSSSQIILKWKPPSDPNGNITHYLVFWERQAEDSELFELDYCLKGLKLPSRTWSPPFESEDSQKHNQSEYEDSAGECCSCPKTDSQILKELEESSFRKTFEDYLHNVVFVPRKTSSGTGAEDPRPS
Chain of Insulin receptor (P06213 763-1382 limits assumed): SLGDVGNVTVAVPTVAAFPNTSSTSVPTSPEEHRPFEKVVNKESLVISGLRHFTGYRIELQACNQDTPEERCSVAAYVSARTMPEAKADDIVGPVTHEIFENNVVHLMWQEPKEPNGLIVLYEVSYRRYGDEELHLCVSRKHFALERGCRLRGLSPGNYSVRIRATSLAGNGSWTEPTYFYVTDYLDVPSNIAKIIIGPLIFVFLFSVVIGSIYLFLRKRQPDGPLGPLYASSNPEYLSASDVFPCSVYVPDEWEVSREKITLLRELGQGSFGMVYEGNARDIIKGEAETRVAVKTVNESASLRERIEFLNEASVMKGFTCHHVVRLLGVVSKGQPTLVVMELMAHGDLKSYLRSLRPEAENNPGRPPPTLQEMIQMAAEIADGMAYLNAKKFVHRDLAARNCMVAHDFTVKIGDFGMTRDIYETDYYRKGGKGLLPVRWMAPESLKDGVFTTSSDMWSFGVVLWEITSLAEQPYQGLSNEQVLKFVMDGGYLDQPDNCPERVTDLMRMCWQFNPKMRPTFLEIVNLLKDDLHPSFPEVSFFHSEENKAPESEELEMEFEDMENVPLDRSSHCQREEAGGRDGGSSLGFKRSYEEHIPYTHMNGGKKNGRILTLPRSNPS
Chain of Serine/threonine-protein kinase PLK1 (P53350 whole entry): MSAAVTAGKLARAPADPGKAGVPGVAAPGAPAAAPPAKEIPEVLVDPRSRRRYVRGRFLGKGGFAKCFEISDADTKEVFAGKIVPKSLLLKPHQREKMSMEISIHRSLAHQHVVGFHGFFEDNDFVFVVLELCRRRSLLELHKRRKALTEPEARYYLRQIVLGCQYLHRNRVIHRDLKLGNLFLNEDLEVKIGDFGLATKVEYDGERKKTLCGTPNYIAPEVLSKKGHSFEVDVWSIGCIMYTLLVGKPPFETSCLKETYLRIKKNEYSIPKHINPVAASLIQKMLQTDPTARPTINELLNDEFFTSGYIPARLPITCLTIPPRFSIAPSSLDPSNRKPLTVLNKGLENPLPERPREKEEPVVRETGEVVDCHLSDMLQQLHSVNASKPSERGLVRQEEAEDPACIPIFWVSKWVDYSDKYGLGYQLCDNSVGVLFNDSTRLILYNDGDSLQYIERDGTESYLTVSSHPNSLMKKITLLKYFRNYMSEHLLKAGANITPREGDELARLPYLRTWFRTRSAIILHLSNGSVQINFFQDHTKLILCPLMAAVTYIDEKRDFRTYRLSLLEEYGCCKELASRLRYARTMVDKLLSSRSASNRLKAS
Chain of Tyrosine-protein kinase ABL1 (P00519 whole entry): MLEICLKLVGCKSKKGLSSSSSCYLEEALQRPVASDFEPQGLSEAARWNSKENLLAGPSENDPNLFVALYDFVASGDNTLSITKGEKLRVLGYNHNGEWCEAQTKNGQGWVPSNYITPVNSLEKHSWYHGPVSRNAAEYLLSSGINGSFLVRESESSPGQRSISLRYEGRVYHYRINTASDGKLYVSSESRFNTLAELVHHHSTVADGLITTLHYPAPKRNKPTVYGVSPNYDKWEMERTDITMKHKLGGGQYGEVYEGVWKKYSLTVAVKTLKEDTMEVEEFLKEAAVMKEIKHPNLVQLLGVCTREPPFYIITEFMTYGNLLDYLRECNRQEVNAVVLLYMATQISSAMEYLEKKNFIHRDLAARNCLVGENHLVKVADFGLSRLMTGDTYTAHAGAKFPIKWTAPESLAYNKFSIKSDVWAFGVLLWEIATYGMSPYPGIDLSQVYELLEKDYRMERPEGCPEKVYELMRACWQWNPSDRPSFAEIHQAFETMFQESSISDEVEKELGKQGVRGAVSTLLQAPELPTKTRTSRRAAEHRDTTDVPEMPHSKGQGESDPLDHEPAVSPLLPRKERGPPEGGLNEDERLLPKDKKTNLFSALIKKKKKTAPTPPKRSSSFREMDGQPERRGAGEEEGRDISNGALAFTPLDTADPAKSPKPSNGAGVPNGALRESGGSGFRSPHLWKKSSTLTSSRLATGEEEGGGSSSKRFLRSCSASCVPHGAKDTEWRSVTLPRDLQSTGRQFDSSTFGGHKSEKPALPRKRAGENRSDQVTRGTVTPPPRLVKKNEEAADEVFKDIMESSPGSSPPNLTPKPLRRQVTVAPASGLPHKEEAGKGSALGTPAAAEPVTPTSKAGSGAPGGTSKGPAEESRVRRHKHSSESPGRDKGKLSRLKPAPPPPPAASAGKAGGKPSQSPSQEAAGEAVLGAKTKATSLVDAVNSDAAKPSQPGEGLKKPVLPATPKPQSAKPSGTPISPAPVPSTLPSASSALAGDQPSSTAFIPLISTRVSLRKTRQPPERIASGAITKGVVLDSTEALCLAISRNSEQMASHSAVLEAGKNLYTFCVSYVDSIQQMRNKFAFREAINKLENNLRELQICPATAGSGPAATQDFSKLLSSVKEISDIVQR
Chain of Histone deacetylase 3 (O15379 whole entry, the tested form may be a part): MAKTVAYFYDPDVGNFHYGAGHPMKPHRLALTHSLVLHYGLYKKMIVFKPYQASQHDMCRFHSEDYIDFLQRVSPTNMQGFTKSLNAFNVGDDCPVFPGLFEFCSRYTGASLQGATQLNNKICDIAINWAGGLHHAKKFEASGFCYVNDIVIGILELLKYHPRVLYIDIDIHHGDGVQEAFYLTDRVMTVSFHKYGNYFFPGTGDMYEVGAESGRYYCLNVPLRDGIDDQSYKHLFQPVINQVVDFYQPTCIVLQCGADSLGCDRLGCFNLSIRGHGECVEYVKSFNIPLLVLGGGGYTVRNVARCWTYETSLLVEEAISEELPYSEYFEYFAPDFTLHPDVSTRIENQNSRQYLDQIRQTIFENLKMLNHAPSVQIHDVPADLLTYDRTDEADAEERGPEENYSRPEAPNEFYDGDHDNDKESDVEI

As for `O=C(/C=C/c1ccc(-c2ccc3ncnc(Nc4ccc(OCc5cccc(F)c5)c(Cl)c4)c3c2)cc1)NO`, the IC50 was greater than 32 µM in [1]; 0.65 µM in test [3]; 0.23 µM in [4]; greater than 32 µM in test [5]; 31 µM in test [6]; 0.018 µM in test [7]. The IC50 was 0.012 µM in test [8]; 2.3 µM in test [9]; 3.7 µM in [10]; 4.9 µM in test [11]; 0.85 µM in test [12]; greater than 100 µM in test [13]. Also, the IC50 turned out to be 9.1 µM in test [14]; 1.1 µM in test [15]; 0.92 µM in test [16]; 0.51 µM in test [17]; 0.28 µM in [18]; 0.33 µM in test [19]. In [20], this compound showed an IC50 of 1.2 µM. In addition, the EC50 in test [2] is greater than 10 µM.
As to `Nc1ccccc1NC(=O)/C=C/c1cccc(-c2ccc3ncnc(Nc4ccc(OCc5cccc(F)c5)c(Cl)c4)c3c2)c1`, the IC50 in test [1] is greater than 32 µM; in test [3], greater than 100 µM; in test [4], greater than 32 µM; in [5], greater than 32 µM; in test [6] it was greater than 32 µM; in test [7], 0.049 µM. Also, the IC50 in [8] is 0.014 µM; in test [9], 2.5 µM; in test [10] it was 2.8 µM; in test [11], 2.9 µM; in test [12], 0.85 µM; in test [13], greater than 100 µM. Further, the IC50 in test [14] was 5.5 µM; in test [15] it was 27 µM; in test [16] it was 8.4 µM; in [17], 12 µM; in [18], greater than 16 µM; in test [19], 50 µM. In [20], this compound had an IC50 of 36 µM. In [2], the EC50 is no less than 20 µM.
For `Nc1ccccc1NC(=O)c1ccc(-c2ccc3ncnc(Nc4ccc(OCc5cccc(F)c5)c(Cl)c4)c3c2)o1`, the IC50 in [1] is greater than 100 µM; in test [3] it was greater than 50 µM; in test [4], greater than 10 µM; in test [5], greater than 32 µM; in [6], greater than 32 µM; in [7] it was 0.0029 µM. The IC50 is 0.0057 µM in test [8]; 4 µM in [9]; 4.5 µM in test [11]; 15 µM in [12]; greater than 100 µM in [13]; 3.9 µM in test [14]. The concentration for half-maximal inhibition (IC50) in test [15] was no less than 16 µM; in test [16] it was 8 µM; in test [17], greater than 5 µM; in test [18], 0.33 µM; in test [20] it was greater than 50 µM. Moreover, in [2], the EC50 was greater than 100 µM.
On to `Nc1ccccc1NC(=O)CCc1ccc(-c2ccc3ncnc(Nc4ccc(OCc5cccc(F)c5)c(Cl)c4)c3c2)cc1`, for which the IC50 in test [1] is greater than 32 µM; in [3], greater than 32 µM; in test [4], greater than 32 µM; in test [5], greater than 32 µM; in test [6], greater than 32 µM; in test [7], 0.015 µM. Further, the IC50 in test [8] was 0.0047 µM; in test [9], 4.7 µM; in test [10], 7.1 µM; in test [11], 6.9 µM; in test [12] it was 1.4 µM; in test [13] it was greater than 100 µM. The IC50 in [14] was 27 µM; in [15], 22 µM; in test [16] it was 8.3 µM; in test [17], 8.6 µM; in test [18], 0.2 µM; in [19] it was 4.4 µM. Moreover, the IC50 in [20] stood at 13 µM.
Take `Nc1ccccc1NC(=O)/C=C/c1ccc(-c2ccc3ncnc(Nc4ccc(OCc5cccc(F)c5)c(Cl)c4)c3c2)o1`: the concentration for half-maximal inhibition (IC50) in test [1] was greater than 32 µM; in test [3] it was greater than 100 µM; in test [4] it was greater than 32 µM; in test [5], greater than 32 µM; in test [6] it was greater than 32 µM; in [7], 0.026 µM. In addition, the IC50 was 0.0087 µM in test [8]; 3.9 µM in [9]; 5.5 µM in test [10]; 4.9 µM in test [11]; 1.9 µM in [12]; greater than 100 µM in [13]. Moreover, the IC50 in [14] came to 8.5 µM; in test [15] it was 18 µM; in [16], 6.5 µM; in test [17], 5.3 µM; in test [18] it was 3.6 µM; in test [19] it was 0.26 µM. Further, in [20], the IC50 is 22 µM.
As to `CS(=O)(=O)CCNCc1ccc(-c2ccc3ncnc(Nc4ccc(OCc5cccc(F)c5)c(Cl)c4)c3c2)o1` [LAPATINIB], in test [2], the EC50 is greater than 30 µM. Also, the IC50 in test [4] was greater than 10 µM; in test [5] it was greater than 10 µM; in [6] it was greater than 10 µM; in [13] it was greater than 100 µM; in test [16], 5.9 µM; in [18], 0.007 µM. The IC50 in test [19] was 0.002 µM; in test [20] it was 0.003 µM.
On to `O=C(NO)c1ccc(-c2ccc3ncnc(Nc4ccc(OCc5cccc(F)c5)c(Cl)c4)c3c2)o1`, for which the EC50 in test [2] is greater than 100 µM. For the same compound, the IC50 in test [3] is greater than 50 µM; in [5] it was greater than 32 µM; in test [6], 7.7 µM; in test [7], 0.0039 µM; in test [8], 0.002 µM; in test [9], 1 µM. The IC50 in test [10] was 1.4 µM; in [11], 1.7 µM; in test [12], 0.46 µM; in test [13] it was 85 µM; in test [14] it was 2 µM; in test [15] it was greater than 16 µM. Also, the IC50 is greater than 5 µM in [17], 0.2 µM in test [18], 0.27 µM in test [19] and 15 µM in test [20].
With `O=C(NO)c1ccc(-c2ccc3ncnc(Nc4ccc(OCc5cccc(F)c5)c(Cl)c4)c3c2)s1`, the IC50 in test [1] was 0.43 µM; in test [3], 0.94 µM; in test [4] it was 0.05 µM; in test [5], 0.56 µM; in test [6], 0.98 µM; in test [7], 0.0022 µM. For the same compound, the IC50 in [8] is 0.0035 µM; in test [9], 1.8 µM; in test [10], 1.7 µM; in test [11] it was 1.7 µM; in test [12] it was 0.2 µM; in test [13], greater than 100 µM. The IC50 came out at 3.4 µM in test [15]; 1.9 µM in test [17]; 0.65 µM in test [18]; 0.42 µM in test [19]; 3.1 µM in test [20]. The EC50 in [2] was greater than 100 µM.
